Experiments:
[1] = system: T-Rex 293 cell line SC3 cells having increased expression of androgen receptor protein due to exposure to doxycycline; experiment: Cellular growth inhibition, T-Rex 293 SC3 cells with doxycycline (androgen receptor induced), CellTiter-Glo; format: cell-based; conditions: T-Rex 293 SC3 cells with 10 ng/mL doxycycline (increased androgen receptor expression)
How it was run: (§1)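 Cells of clone SC3 are seeded in charcoal-dextran-stripped serum medium with or without 10 ng/mL doxycycline to induce wild-type androgen receptor. After 24 h, serial compound dilutions are added at 0.5% DMSO and incubated 72 h at 37 °C. CellTiter-Glo 2.0 measures viability, giving GI50 values.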

[2] = system: T-Rex 293 cell line SC3 cells lacking increased expression of androgen receptor protein; experiment: Cellular growth inhibition, T-Rex 293 SC3 cells without doxycycline, CellTiter-Glo; format: cell-based; conditions: 72 h, T-Rex 293 SC3 cells not exposed to doxycycline, CellTiter-Glo 2.0
How it was run: as §1

VCaP cells = experiment: Cellular growth inhibition assay for VCaP cells, CellTiter-Glo; format: cell-based, human; conditions: 72 hours treatment, CellTiter-Glo 2.0
How it was run: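 GI50 values come from four-parameter curve fits of luminescence data normalized to a zero baseline. Compound, in medium with 0.5% DMSO, was added one day after plating and left for 72 h before CellTiter-Glo 2.0 addition.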

T47D cells = experiment: Cellular growth inhibition assay for T47D cells, CellTiter-Glo; format: cell-based, human; conditions: 72 hours treatment, CellTiter-Glo 2.0 cell viability
How it was run: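 Cells are plated at 3000/well and allowed 24 h before treatment. Test compound in medium containing 0.5% DMSO is then added, with DMSO-only wells as negative control, and plates are incubated 72 h at 37 °C. ATP luminescence (CellTiter-Glo 2.0) is then fitted to four parameters to derive GI50.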

SMILES | GI50 (VCaP cells; Homo sapiens, VCaP, 72 h) | GI50 (T47D cells; Homo sapiens, T47D, 72 h) | GI50 (VCaP cells) | GI50 (T47D cells) | GI50 ([1]; 72 h) | GI50 [2] | GI50 ([1]; 72 hours)
Cc1sc2c(c1C)C(c1ccc(CC(C)(C)N3CC4(CCCN(c5ncc(C(=O)N[C@H]6C(C)(C)[C@H](Oc7ccc(C#N)c(Cl)c7)C6(C)C)cn5)C4)C3)cc1)=N[C@@H](Cc1ncco1)c1nnc(C)n1-2 [Compound I-429] | < 500 nM | < 500 nM |  |  | < 500 nM | 1500 to 3000 nM | 
Cc1sc2c(c1C)C(c1ccc(-c3csnc3OC3CCN(c4ncc(C(=O)N[C@H]5C(C)(C)[C@H](Oc6ccc(C#N)c(Cl)c6)C5(C)C)cn4)CC3)cc1)=N[C@@H](Cc1ncco1)c1nnc(C)n1-2 [Compound I-431] | < 500 nM | > 3000 nM |  |  | < 500 nM | > 3000 nM | 
Cc1sc2c(c1C)C(c1ccc(-c3conc3OC3CCN(c4ncc(C(=O)N[C@H]5C(C)(C)[C@H](Oc6ccc(C#N)c(Cl)c6)C5(C)C)cn4)CC3)cc1)=N[C@@H](Cc1ncco1)c1nnc(C)n1-2 [Compound I-432] | < 500 nM | > 3000 nM |  |  | < 500 nM | > 3000 nM | 
[2H]C([2H])(c1ccc(C2=N[C@@H](Cc3ncco3)c3nnc(C)n3-c3sc(C)c(C)c32)cc1)N1CC[C@@]2(CCCN(c3ncc(C(=O)N[C@H]4C(C)(C)[C@H](Oc5ccc(C#N)c(Cl)c5)C4(C)C)cn3)C2)C1 [Compound I-433] | < 500 nM | 500 to 1500 nM |  |  | < 500 nM | < 500 nM | 
[2H]C([2H])(c1ccc(C2=N[C@@H](Cc3ncco3)c3nnc(C)n3-c3sc(C)c(C)c32)cc1)N1CC[C@]2(CCCN(c3ncc(C(=O)N[C@H]4C(C)(C)[C@H](Oc5ccc(C#N)c(Cl)c5)C4(C)C)cn3)C2)C1 [Compound I-434] | < 500 nM | < 500 nM |  |  | < 500 nM | > 3000 nM | 
Cc1sc2c(c1C)C(c1ccc(C(C)(C)N3CC4(CCN(c5ncc(C(=O)N[C@H]6C(C)(C)[C@H](Oc7ccc(C#N)c(Cl)c7)C6(C)C)cn5)CC4)C3)cc1)=N[C@@H](Cc1ncco1)c1nnc(C)n1-2 [Compound I-438] |  |  | 500 to 1500 nM | > 3000 nM |  | 1500 to 3000 nM | < 500 nM
Cc1sc2c(c1C)C(c1ccc(C(C)(C)N3CC4(CCCN(c5ncc(C(=O)N[C@H]6C(C)(C)[C@H](Oc7ccc(C#N)c(Cl)c7)C6(C)C)cn5)C4)C3)cc1)=N[C@@H](Cc1ncco1)c1nnc(C)n1-2 [Compound I-439] | > 3000 nM | > 3000 nM |  |  | < 500 nM | > 3000 nM | 
Cc1sc2c(c1C)C(c1ccc(-n3ccc(C4CCN(c5ncc(C(=O)N[C@H]6C(C)(C)[C@H](Oc7ccc(C#N)c(Cl)c7)C6(C)C)cn5)CC4)n3)cc1)=N[C@@H](Cc1ncco1)c1nnc(C)n1-2 [Compound I-441] | < 500 nM | < 500 nM |  |  | < 500 nM | 500 to 1500 nM | 
Cc1sc2c(c1C)C(c1ccc(-c3ncc(C4CCN(c5ncc(C(=O)N[C@H]6C(C)(C)[C@H](Oc7ccc(C#N)c(Cl)c7)C6(C)C)cn5)CC4)o3)cc1)=N[C@@H](Cc1ncco1)c1nnc(C)n1-2 [Compound I-442] | < 500 nM | < 500 nM |  |  | < 500 nM | > 3000 nM | 
Cc1sc2c(c1C)C(c1ccc(-c3cc(OC4CCN(c5ncc(C(=O)N[C@H]6C(C)(C)[C@H](Oc7ccc(C#N)c(Cl)c7)C6(C)C)cn5)CC4)cs3)cc1)=N[C@@H](Cc1ncco1)c1nnc(C)n1-2 [Compound I-443] | < 500 nM | > 3000 nM |  |  | < 500 nM | > 3000 nM | 
Cc1sc2c(c1C)C(c1ccc(-c3ccsc3OC3CCN(c4ncc(C(=O)N[C@H]5C(C)(C)[C@H](Oc6ccc(C#N)c(Cl)c6)C5(C)C)cn4)CC3)cc1)=N[C@@H](Cc1ncco1)c1nnc(C)n1-2 [Compound I-444] | < 500 nM | > 3000 nM |  |  | < 500 nM | > 3000 nM | 
Cc1sc2c(c1C)C(c1ccc(N3CCC[C@@H](OCCc4ncc(C(=O)N[C@H]5C(C)(C)[C@H](Oc6ccc(C#N)c(Cl)c6)C5(C)C)cn4)C3)cc1)=N[C@@H](Cc1ncco1)c1nnc(C)n1-2 [Compound I-451] | < 500 nM | 500 to 1500 nM |  |  | < 500 nM | 500 to 1500 nM | 
Cc1sc2c(c1C)C(c1ccc(-c3ncc(C4CCN(c5ncc(C(=O)N[C@H]6C(C)(C)[C@H](Oc7ccc(C#N)c(Cl)c7)C6(C)C)cn5)CC4)s3)cc1)=N[C@@H](Cc1ncco1)c1nnc(C)n1-2 [Compound I-452] | < 500 nM | < 500 nM |  |  | < 500 nM | < 500 nM | 
Cc1sc2c(c1C)C(c1ccc(-c3cc(C4CCN(c5ncc(C(=O)N[C@H]6C(C)(C)[C@H](Oc7ccc(C#N)c(Cl)c7)C6(C)C)cn5)CC4)on3)cc1)=N[C@@H](Cc1ncco1)c1nnc(C)n1-2 [Compound I-453] | < 500 nM | < 500 nM |  |  | < 500 nM | > 3000 nM | 
Cc1sc2c(c1C)C(c1ccc(-c3noc(C4CCN(c5ncc(C(=O)N[C@H]6C(C)(C)[C@H](Oc7ccc(C#N)c(Cl)c7)C6(C)C)cn5)CC4)n3)cc1)=N[C@@H](Cc1ncco1)c1nnc(C)n1-2 [Compound I-454] | < 500 nM | 500 to 1500 nM |  |  | < 500 nM | < 500 nM | 
Cc1sc2c(c1C)C(c1ccc(OC3CC4(CCN(c5ncc(C(=O)N[C@H]6C(C)(C)[C@H](Oc7ccc(C#N)c(Cl)c7)C6(C)C)cn5)CC4)C3)c(F)c1)=N[C@@H](Cc1ncco1)c1nnc(C)n1-2 [Compound I-456] | 1500 to 3000 nM | > 3000 nM |  |  | < 500 nM | > 3000 nM | 
Cc1sc2c(c1C)C(c1ccc(OC3CC4(CCN(c5ncc(C(=O)N[C@H]6C(C)(C)[C@H](Oc7ccc(C#N)c(Cl)c7)C6(C)C)cn5)CC4)C3)cc1F)=N[C@@H](Cc1ncco1)c1nnc(C)n1-2 [Compound I-457, N-[3-(3-chloro-4-cyano-phenoxy)-2,2,4,4-tetramethyl-cyclobutyl]-2-[2-[3-fluoro-4-[(9S)-4,5,13-trimethyl-9-(oxazol-2-ylmethyl)-3-thia-1,8,11,12-tetrazatricyclo[8.3.0.02,6]trideca-2(6),4,7,10,12-pentaen-7-yl]phenoxy]-7-azaspiro [3.5]nonan-7-yl]pyrimidine-5-carboxamide] | < 500 nM | < 500 nM |  |  | < 500 nM | < 500 nM | 
Cc1sc2c(c1C)C(c1ccc(N3CC4(CCC(Cc5ncc(C(=O)N[C@H]6C(C)(C)[C@H](Oc7ccc(C#N)c(Cl)c7)C6(C)C)cn5)CC4)C3)cc1)=N[C@@H](Cc1ncco1)c1nnc(C)n1-2 [Compound I-458] | < 500 nM | < 500 nM |  |  | < 500 nM | < 500 nM | 

Now from value to compound, other results behind:

GI50 (VCaP cells; Homo sapiens, VCaP, 72 h) | GI50 (T47D cells; Homo sapiens, T47D, 72 h) | GI50 (VCaP cells) | GI50 (T47D cells) | SMILES | GI50 ([1]; 72 h) | GI50 [2] | GI50 ([1]; 72 hours)
< 500 nM | < 500 nM |  |  | Cc1sc2c(c1C)C(c1ccc(-n3ncc(C4CCN(c5ncc(C(=O)N[C@H]6C(C)(C)[C@H](Oc7ccc(C#N)c(Cl)c7)C6(C)C)cn5)CC4)n3)cc1)=N[C@@H](Cc1ncco1)c1nnc(C)n1-2 [Compound I-430] | < 500 nM | < 500 nM | 
> 3000 nM | < 500 nM |  |  | Cc1sc2c(c1C)C(c1ccc(N3CCC(C4CCN(c5cnc(C(=O)N[C@H]6C(C)(C)[C@H](Oc7ccc(C#N)c(Cl)c7)C6(C)C)cn5)CC4)CC3)cc1)=N[C@@H](C)c1nnc(C)n1-2 [Compound I-437] | < 500 nM | > 3000 nM | 
 | < 500 nM | < 500 nM |  | Cc1sc2c(c1C)C(c1ccc(CC3CC(OC4CCN(c5ncc(C(=O)N[C@H]6C(C)(C)[C@H](Oc7ccc(C#N)c(Cl)c7)C6(C)C)cn5)CC4)C3)cc1)=N[C@@H](C)c1nnc(C)n1-2 (some centres unmarked) [Compound I-445] | < 500 nM | > 3000 nM | 
500 to 1500 nM | < 500 nM |  |  | Cc1sc2c(c1C)C(c1ccc(CC3CC4(CCN(c5ccc(C(=O)N[C@H]6C(C)(C)[C@H](Oc7ccc(C#N)c(Cl)c7)C6(C)C)nc5)CC4)C3)cc1)=N[C@@H](C)c1nnc(C)n1-2 [Compound I-447] | < 500 nM | > 3000 nM | 
> 3000 nM | < 500 nM |  |  | Cc1sc2c(c1C)C(c1ccc(CC3CC4(CCN(c5cnc(C(=O)N[C@H]6C(C)(C)[C@H](Oc7ccc(C#N)c(Cl)c7)C6(C)C)cn5)CC4)C3)cc1)=N[C@@H](C)c1nnc(C)n1-2 [Compound I-448] | < 500 nM | > 3000 nM | 
> 3000 nM | 500 to 1500 nM |  |  | Cc1sc2c(c1C)C(c1ccc(N3CC(CC4CCN(c5ccc(C(=O)N[C@H]6C(C)(C)[C@H](Oc7ccc(C#N)c(Cl)c7)C6(C)C)nc5)CC4)C3)cc1)=N[C@@H](C)c1nnc(C)n1-2 [Compound I-449] | > 3000 nM | > 3000 nM | 
> 3000 nM | < 500 nM |  |  | Cc1sc2c(c1C)C(c1ccc(N3CC(CC4CCN(c5cnc(C(=O)N[C@H]6C(C)(C)[C@H](Oc7ccc(C#N)c(Cl)c7)C6(C)C)cn5)CC4)C3)cc1)=N[C@@H](C)c1nnc(C)n1-2 [Compound I-450] | 500 to 1500 nM | > 3000 nM | 
< 500 nM | > 3000 nM |  |  | Cc1sc2c(c1C)C(c1ccc(-n3nccc3C3CCN(c4ncc(C(=O)N[C@H]5C(C)(C)[C@H](Oc6ccc(C#N)c(Cl)c6)C5(C)C)cn4)CC3)cc1)=N[C@@H](Cc1ncco1)c1nnc(C)n1-2 [Compound I-455] | < 500 nM | > 3000 nM | 
